Experimental data published in US7029857B1, “Processes for obtaining compounds employing SNORF72 receptors” (H. Lundbeck A/S, priority 1999, dated 2006).
Several values for one entry are separate records, joined by “and”; a condition that tells them apart may be missing. Equal entries are not always repeated. No end group written: not given here.

Tests used:
SNORF72 [1] = molecular target: T1, SNORF72 (Homo sapiens, UniProt Q9GZQ4, A395T); test: Intracellular Ca2+ release (FLIPR) in SNORF72-transfected COS-7 cells; type: cell-based; conditions: SNORF72-transfected COS-7 cells, peptides at 300 nM (FIG. 8)
T1 construct: expressed in transfected cells; host or cells: COS-7 (transient, DEAE-dextran)
Description: (§1) A typical protocol for the DEAE-dextran method as applied to COS-7 and HEK293 cells is described as follows. Cells to be used for transfection are split 24 hours prior to the transfection to provide flasks which are 70–80% confluent at the time of transfection. Briefly, 8 μg of receptor DNA plus 8 μg of any additional DNA needed (e.g. Gα protein expression vector, reporter construct, antibiotic resistance marker, mock vector, etc.) are added to 9 ml of complete DMEM plus DEAE-dextran mixture (10 mg/ml in PBS). Cells plated into a T225 flask (sub-confluent) are washed once with PBS and the DNA mixture is added to each flask. The cells are allowed to incubate for 30 minutes at 37° C., 5% CO2. Following the incubation, 36 ml of complete DMEM with 80 μM chloroquine is added to each flask and allowed to incubate an additional 3 hours. The medium is then aspirated and 24 ml of complete medium containing 10% DMSO for exactly 2 minutes and then aspirated. The cells are then washed 2 times with PBS and 30 ml of complete DMEM added to each flask. The cells are then allowed to incubate over night. The next day the cells are harvested by trypsinization and reseeded into 96 well plates.
(§2) Cells expressing the receptor of interest are plated into clear, flat-bottom, black-walled 96-well plates (Costar) at a density of 80,000–150,000 cells per well and allowed to incubate for 48 hr at 5% CO2, 37° C. The growth medium is aspirated and 100 μL of loading medium containing Fluo-3 dye is added to each well. The loading medium contains: 20 mM HEPES (Sigma), 0.1% BSA (Sigma), dye/pluronic acid mixture (e.g. 1 mM Fluo-3/AM (Molecular Probes) and 10% pluronic acid (Molecular Probes) mixed immediately before use), and 2.5 mM probenecid (Sigma)(prepared fresh). The cells are allowed to incubate for about 1 hour at 5% CO2, 37° C.
(§3) The compounds of interest are diluted in wash buffer (Hank's BSS (without phenol red), 20 mM HEPES, 2.5 mM probenecid) to a 4× final concentration and aliquoted into a clear v-bottom plate (Nunc). Following the dye incubation, the cells are washed 4 times to remove excess dye using a Denley plate washer. 100 μL final volume of wash buffer is then added to each cell well. Compounds are added to the cell plates and responses are measured using the FLIPR™ instrument. The data are then collected and analyzed using the FLIPR™ software and Graphpad Prism.
(§4) COS-7 cells were transiently transfected with SNORF62, SNORF72 or vector DNA (mock) as described in Materials and Methods.

rat SNORF72 = molecular target: T2, rat SNORF72 (Rattus norvegicus, UniProt Q9ESQ4); test: Intracellular Ca2+ release (FLIPR) in rat SNORF72-transfected COS-7 cells; type: cell-based; conditions: FIG. 22 at 100 nM
T2 construct: corresponding to a predicted protein of 395 amino acids; expressed in transfected cells; host or cells: COS-7 (transient)
Description: as §1, with “The medium is then aspirated and 24 ml of complete medium containing 10% DMSO for exactly 2 minutes and then aspirated. The cells are then washed 2 times with PBS and 30 ml of complete DMEM added to each flask. The cells are then allowed to incubate over night. The next day the cells are harvested by trypsinization and reseeded into 96 well plates.” left out
In another method, the measurement of intracellular Ca^2+ can also be performed on a 96-well (or higher) format and with alternative Ca^2+-sensitive indicators, preferred examples of these are: aequorin, Fluo-3, Fluo-4, Fluo-5, Calcium Green-1, Oregon Green, and 488 BAPTA. After activation of the receptors with agonist ligands the emission elicited by the change of intracellular Ca^2+ concentration can be measured by a luminometer, or a fluorescence imager; a preferred example of this is the fluorescence imager plate reader (FLIPR™, Molecular Devices). […]

rat uterus membranes = conditions: binding site in rat uterus; cited from earlier work
SNORF62 [2] = molecular target: T3, SNORF62 (Homo sapiens, UniProt Q9HB89); test: Intracellular Ca2+ release (FLIPR) in SNORF62-transfected COS-7 cells; type: cell-based; design: The SNORF62 cDNA codes for a protein of 426 amino acids; expressed in transfected cells; host or cells: COS-7 (transient, DEAE-dextran); conditions: for maximum response / agonist efficacy at SNORF62: functional assay, data not shown
T3 sequence (Q9HB89 1-426): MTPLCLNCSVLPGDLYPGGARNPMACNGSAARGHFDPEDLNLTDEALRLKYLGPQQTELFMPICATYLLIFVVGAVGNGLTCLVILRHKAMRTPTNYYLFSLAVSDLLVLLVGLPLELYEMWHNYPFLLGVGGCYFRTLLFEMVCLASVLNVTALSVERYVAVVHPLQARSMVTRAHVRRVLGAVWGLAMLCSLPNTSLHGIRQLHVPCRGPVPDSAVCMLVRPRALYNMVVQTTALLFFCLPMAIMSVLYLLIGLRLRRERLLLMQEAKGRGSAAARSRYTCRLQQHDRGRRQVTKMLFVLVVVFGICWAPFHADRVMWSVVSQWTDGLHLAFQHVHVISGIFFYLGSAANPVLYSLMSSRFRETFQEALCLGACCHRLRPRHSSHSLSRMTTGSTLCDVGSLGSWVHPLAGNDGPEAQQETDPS
Description: as §1, §2, §3, §4

rat adrenal gland slices = conditions: cited from earlier work
[3] = tested on: isolated rat inner adrenocortical cells; conditions: absence of medullary cells; cited from earlier work
[4] = cited from earlier work
SNORF62 [5] = molecular target: T3, SNORF62; test: Inositol phosphate (IP) release in SNORF62-transfected COS-7 cells; type: cell-based; design: The SNORF62 cDNA codes for a protein of 426 amino acids; expressed in transfected cells; host or cells: COS-7 (transient, DEAE-dextran)
Description: Human SNORF62 receptor-mediated activation and human SNORF72 receptor-mediated activation of the inositol phosphate (IP) second messenger pathways were assessed by radiometric measurement of IP products.
For example, in a 96 well microplate format assay, COS-7 cells expressing the receptor of interest were plated at a density of 70,000 cells per well and allowed to incubate for 24 hours. The cells were then labeled with 0.5 μCi [^3H]myo-inositol overnight at 37° C., 5% CO2. Immediately before the assay, the medium was removed and replaced with 180 μL of Phosphate-Buffered Saline (PBS) containing 10 mM LiCl. The plates were then incubated for 20 min at 37° C., 5% CO2. Following the incubation, the cells were challenged with agonist (20 μl/well; 10× concentration) for 30 min at 37° C. The challenge was terminated by the addition of 100 μL of 5% v/v trichloroacetic acid, followed by incubation at 4° C. for greater than 30 minutes. Total IPs were isolated from the lysate by ion exchange chromatography. Briefly, the lysed contents of the wells were transferred to a Multiscreen HV filter plate (Millipore) containing Dowex AG1-X8 (200–400 mesh, formate form). The filter plates were prepared adding 100 μL of Dowex AG1-X8 suspension (50% v/v, water: resin) to each well. The filter plates were placed on a vacuum manifold to wash or elute the resin bed. Each well was first washed 2 times with 200 μl of 5 mM myo-inositol. Total [^3H]inositol phosphates were eluted with 75 μl of 1.2M ammonium formate/0.1M formic acid solution into 96-well plates. 200 μL of scintillation cocktail was added to each well, and the radioactivity was determined by liquid scintillation counting.

SNORF62 [6] = molecular target: T3, SNORF62; test: Displacement of [125I]rat NMU-23 binding in SNORF62-transfected COS-7 membranes; design: The SNORF62 cDNA codes for a protein of 426 amino acids; expressed in transfected cells; host or cells: COS-7 (transient, DEAE-dextran); conditions: SNORF62 membranes, displacement of [125I]rat NMU-23; read-out: average pKi (converted)
Description: (§5) The specifics of preparing such cell membranes may in some cases be determined by the nature of the ensuing assay but typically involve harvesting whole cells and disrupting the cell pellet by sonication in ice cold buffer (e.g. 20 mM Tris HCl, mM EDTA, pH 7.4 at 4° C.). The resulting crude cell lysate is cleared of cell debris by low speed centrifugation at 200×g for 5 min at 4° C. The cleared supernatant is then centrifuged at 40,000×g for 20 min at 4° C., and the resulting membrane pellet is washed by suspending in ice cold buffer and repeating the high speed centrifugation step. The final washed membrane pellet is resuspended in assay buffer. Protein concentrations are determined by the method of Bradford (1976) using bovine serum albumin as a standard. The membranes may be used immediately or frozen for later use.
(§6) Radioligand binding assays were performed by diluting membranes prepared from cells expressing the receptor in 50 mM Tris buffer (pH=7.4 at 0° C.) containing 0.1% bovine serum albumin (Sigma), aprotinin (0.005 mg/ml, Boehringer Mannheim) and bestatin (0.1 mM, Sigma) as protease inhibitors. The final protein concentration in the assay was 12–40 μg/ml. […] The bound ligand was separated from free by filtration through GF/B filters presoaked in 0.5% polyethyleneimine (PEI), using a Tomtec (Wallac) vacuum filtration device. After addition of Ready Safe (Beckman) scintillation fluid, bound radioactivity was quantitated using a Trilux (Wallac) scintillation counter (approximately 40% counting efficiency of bound counts). Data was fit to non-linear curves using GraphPad Prism.
(§7) In this manner, agonist or antagonist compounds that bind to the receptor may be identified as they inhibit the binding of the labeled ligand to the membrane protein of cells expressing the said receptor. Non-specific binding was defined as the amount of radioactivity remaining after incubation of membrane protein in the presence of 100 nM of the unlabeled peptide corresponding to the radioligand used. In equilibrium saturation binding assays membrane preparations or intact cells transfected with the receptor are incubated in the presence of increasing concentrations of the labeled compound to determine the binding affinity of the labeled ligand.

SNORF72 [7] = molecular target: T1, SNORF72; test: Displacement of [125I]rat NMU-23 binding in SNORF72-transfected COS-7 membranes; conditions: SNORF72 membranes, displacement of [125I]rat NMU-23; read-out: average pKi (converted)
Description: as §5, §6, §7

[8] = tested on: isolated rat uterus preparations; conditions: read-out: EC50 concentration for contraction; cited from earlier work
SNORF72 [9] = molecular target: T1, SNORF72; test: Saturation binding of radioligands to SNORF72-transfected COS-7 membranes; conditions: two values n=2
Description: COS-7 cells were transiently transfected with SNORF72 and membranes were prepared as described in Materials and Methods. […] Results presented are representative of 2 experiments performed in duplicate.
(§8) Cell membranes expressing the receptor protein of this invention are useful for certain types of assays including but not restricted to ligand binding assays, GTP-γ-S binding assays, and others. The specifics of preparing such cell membranes may in some cases be determined by the nature of the ensuing assay but typically involve harvesting whole cells and disrupting the cell pellet by sonication in ice cold buffer (e.g. 20 mM Tris HCl, mM EDTA, pH 7.4 at 4° C.). The resulting crude cell lysate is cleared of cell debris by low speed centrifugation at 200×g for 5 min at 4° C. […] Protein concentrations are determined by the method of Bradford (1976) using bovine serum albumin as a standard. […]
(§9) Radioligand binding assays were performed by diluting membranes prepared from cells expressing the receptor in 50 mM Tris buffer (pH=7.4 at 0° C.) containing 0.1% bovine serum albumin (Sigma), aprotinin (0.005 mg/ml, Boehringer Mannheim) and bestatin (0.1 mM, Sigma) as protease inhibitors. […] After addition of Ready Safe (Beckman) scintillation fluid, bound radioactivity was quantitated using a Trilux (Wallac) scintillation counter (approximately 40% counting efficiency of bound counts). […]

SNORF62 [10] = molecular target: T3, SNORF62; test: Saturation binding of radioligands to SNORF62-transfected COS-7 membranes; design: The SNORF62 cDNA codes for a protein of 426 amino acids; expressed in transfected cells; host or cells: COS-7 (transient, DEAE-dextran); conditions: two values n=2
Description: COS-7 cells were transiently transfected with SNORF62 and membranes were prepared as described in Materials and Methods. […] Results are representative of 2 experiments performed in duplicate.
as §8, §9

[11] = rats, single subcutaneous injection 6 μg/100 g body weight

T1 sequence (Q9GZQ4 whole entry A395T): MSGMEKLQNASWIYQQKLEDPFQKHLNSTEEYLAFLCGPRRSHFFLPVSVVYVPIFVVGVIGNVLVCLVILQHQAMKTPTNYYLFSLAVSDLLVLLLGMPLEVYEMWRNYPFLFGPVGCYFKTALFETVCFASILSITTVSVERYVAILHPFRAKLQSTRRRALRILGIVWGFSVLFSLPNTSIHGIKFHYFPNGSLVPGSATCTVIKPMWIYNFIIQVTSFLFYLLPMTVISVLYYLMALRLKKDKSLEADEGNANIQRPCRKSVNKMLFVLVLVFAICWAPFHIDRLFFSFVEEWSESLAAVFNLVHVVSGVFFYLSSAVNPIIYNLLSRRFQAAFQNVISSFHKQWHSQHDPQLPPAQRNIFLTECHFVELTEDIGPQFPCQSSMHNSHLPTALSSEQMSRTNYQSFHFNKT
T2 sequence (Q9ESQ4 whole entry): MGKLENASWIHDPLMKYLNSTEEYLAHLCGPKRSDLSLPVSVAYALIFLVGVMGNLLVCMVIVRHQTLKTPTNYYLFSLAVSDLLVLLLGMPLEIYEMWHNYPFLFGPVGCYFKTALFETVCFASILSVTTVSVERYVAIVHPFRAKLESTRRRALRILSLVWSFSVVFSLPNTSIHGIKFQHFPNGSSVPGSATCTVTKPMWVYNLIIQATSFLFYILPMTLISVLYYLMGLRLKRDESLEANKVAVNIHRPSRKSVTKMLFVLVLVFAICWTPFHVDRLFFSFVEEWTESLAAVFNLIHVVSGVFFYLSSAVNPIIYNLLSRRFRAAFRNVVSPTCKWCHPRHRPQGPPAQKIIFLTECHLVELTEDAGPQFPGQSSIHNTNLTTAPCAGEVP

| Compound | stimulation of intracellular Ca2+ release (SNORF72 [1]) | increases in intracellular Ca2+ (rat SNORF72) | IC50 (rat uterus membranes) [nM] | maximum response / agonist efficacy at SNORF62 (SNORF62 [2]) | basal corticosterone and pregnenolone steroid secretion (rat adrenal gland slices) | basal corticosterone secretion [3] | stress-evoked rise in corticosterone ([4]; rats treated for 6 days) | time during which ACTH blood concentrations are elevated [4, 11] [h] | time plasma corticosterone levels remain elevated [4, 11] [h] | adrenal weight and the number of cells in the zona reticularis ([4]; repeated administration) | agonist efficacy in IP release assay (SNORF62 [5]) | Ki (SNORF62 [6]) [nM] | EC50 (SNORF62 [2]; stimulation of Ca2+ release, SNORF62-transfected COS-7 cells, n = 2-7 (Table 1A)) [nM] | Ki (SNORF72 [7]) [nM] | EC50 [8] [nM] | Bmax (SNORF72 [9]) | Bmax (SNORF62 [10]) |
| --- | --- | --- | --- | --- | --- | --- | --- | --- | --- | --- | --- | --- | --- | --- | --- | --- | --- |
| CC(C)C[C@H](NC(=O)[C@H](Cc1ccccc1)NC(=O)[C@@H](N)Cc1ccc(O)cc1)C(=O)N[C@@H](Cc1ccccc1)C(=O)N[C@@H](CCCNC(=N)N)C(=O)N1CCC[C@H]1C(=O)N[C@@H](CCCNC(=N)N)C(=O)N[C@@H](CC(N)=O)C(N)=O [porcine NMU-8, Y F L F R P R N—NH2] | stimulated | robust increases | 60 | full agonists | markedly increased | without effect | absent | 3 to 12 | 24 | decreased | full agonists | – | – | – | – | – | – |
| YKVNEYQGPVAPSGGFFLFRPRN-NH2 [rat NMU-23, YKVNEYQGPVAPSGGFFLFRPRN—NH2] | stimulated | robust increases | 1 | full agonists | – | directly decreased | – | – | – | – | full agonists | 0.398 | 2.1 ± 0.5 | 1 | 0.2 | – | – |
| [^125I]rat NMU-23: radioiodinated rat NMU-23 radioligand (NEN, specific activity 2200 Ci/mmole) (YKVNEYQGPVAPSGGFFLFRPRN-NH2; ends and bridges not checked; also: radioiodinated (125I), position not given here) | – | – | – | – | – | – | – | – | – | – | – | – | – | – | – | 8.0 pmol/mg protein and 8.2 pmol/mg protein | 16.5 pmol/mg protein and 9.9 pmol/mg protein |
